Data as given in patent US20140051815A1, “ORGANIC SULFONIC ACID COMPOUND, DOPANT HAVING SAME, AND CONDUCTIVE POLYMER COMPLEX HAVING THE DOPANT” (Ajou University Industry-Academic Cooperation Foundation, priority 2011, published 2014).

What was measured:
[1] = Solubility in various solvents; assay type: physicochemical; parameters: key: +++: dissolved well; ++: almost dissolved, but not completely dissolved and somewhat precipitated; +: opaquely dispersed; −: not dissolved but precipitated
Method: Solubility properties of polyaniline ES in various organic solvents using the dopants of Examples were compared and checked in the same experimental conditions. […] After a basket mixing process, transmittances were measured and an average particle size was measured by using a particle size analyzer, and measurement results are as shown in Table 5.

[2] = Acidity / pH of doping solution, titration with 0.1 N KOH; assay type: physicochemical
Text: In order to confirm a doping function of the dopants of Examples, pH of a doping solution was checked by using a 0.1 N KOH solution. […] Therefore, a function as a dopant could be confirmed.

Compound | Solubility in BuO—EtOH [1] | Solubility in CHCl3 [1] | Solubility in H2O [1] | Solubility in MEK [1] | Solubility in MeOH [1] | Solubility in NMP [1] | Solubility in isopropyl alcohol [1] | Solubility in m-cresol [1] | Solubility in toluene [1] | Titration (Acidity) 0.1N KOH; converted into sulfonic acid [2] [%]
O=S(=O)(O)CCCOc1ccc(O)cc1 [Dopant II] | +++ | − | +++ | + | +++ | +++ | ++ | ++ | − | 85
O=S(=O)(O)CCCOc1ccc(-c2ccccc2)cc1 [Dopant IV] | + | − | +++ | + | +++ | +++ | + | +++ | − | 
Cc1cccc(OCCCS(=O)(=O)O)c1 [Dopant I] | ++ | − | +++ | + | +++ | ++ | +++ | ++ | − | 86
Cc1cc(OCCCS(=O)(=O)O)ccc1O [Dopant VI] | +++ | − | +++ | + | +++ | +++ | +++ | ++ | − | 
O=S(=O)(O)CCCOc1ccc(OCc2ccccc2)cc1 [Dopant V] | +++ | − | +++ | ++ | +++ | +++ | ++ | ++ | − | 
